Structures are written as SMILES.

For data set [1], the system named is BV-2. Put plainly: Inhibition of lipopolysaccharide-induced nitric oxide production in mouse BV2 cells assessed as reduction in nitrite level by Griess reaction based ELISA. The data set is classed as functional, cell-based.
The subject of data set [2] is BV-2. Kind of data set: Cytotoxicity in mouse BV2 cells by MTT assay. The data set is classed as cell-based.
For data set [3], the system named is BV-2. Put plainly: Inhibition of lipopolysaccharide-induced nitric oxide production in mouse BV2 cells assessed as reduction in nitrite level at 60 uM by Griess reaction based ELISA. The data set is classed as functional.
The subject of data set [4] is Microglia. Kind of data set: Inhibition of lipopolysaccharide-induced PGE2 production in Sprague-Dawley rat primary microglia cells pre-incubated for 1 hr before LPS stimulation for 24 hrs. The data set is classed as functional, cell-based.
The test system of data set [5] is BV-2. Kind of data set: Inhibition of lipopolysaccharide-induced PGE2 production in mouse BV2 cells pre-incubated for 1 hr before LPS stimulation for 24 hrs. The data set is classed as functional, cell-based.
Data set [6] deals with Microglia. Kind of data set: Inhibition of lipopolysaccharide-induced IL-1beta production in Sprague-Dawley rat primary microglia cells pre-incubated for 1 hr before LPS stimulation for 24 hrs by ELISA. The data set is classed as functional, cell-based.
Data set [7] relates to BV-2. Put plainly: Inhibition of lipopolysaccharide-induced IL-1beta production in mouse BV2 cells pre-incubated for 1 hr before LPS stimulation for 24 hrs by ELISA. The data set is classed as functional, cell-based.
For data set [8], the system named is Microglia. Put plainly: Inhibition of lipopolysaccharide-induced TNFalpha production in Sprague-Dawley rat primary microglia cells pre-incubated for 1 hr before LPS stimulation for 24 hrs by ELISA. The data set is classed as functional, cell-based.
The subject of data set [9] is Microglia. Put plainly: Inhibition of lipopolysaccharide-induced nitric oxide production in Sprague-Dawley rat primary microglia cells assessed as reduction in nitrite level by Griess reaction based ELISA. The data set is classed as functional, cell-based.
In data set [10] the test system is BV-2. Kind of data set: Inhibition of lipopolysaccharide-induced COX2 protein expression in mouse BV2 cells pre-incubated for 3 hrs before LPS stimulation by Western blot method. The data set is classed as functional, cell-based.
For data set [11], the system named is BV-2. Put plainly: Inhibition of lipopolysaccharide-induced iNOS protein expression in mouse BV2 cells pre-incubated for 3 hrs before LPS stimulation by Western blot method. The data set is classed as functional, cell-based.
Data set [12] relates to Microglia. Kind of data set: Inhibition of lipopolysaccharide-induced IL6 production in Sprague-Dawley rat primary microglia cells pre-incubated for 1 hr before LPS stimulation for 24 hrs by ELISA. The data set is classed as functional, cell-based.
For data set [13], the system named is Microglia. Kind of data set: Inhibition of lipopolysaccharide-induced COX2 protein expression in Sprague-Dawley rat primary microglia cells pre-incubated for 3 hrs before LPS stimulation by Western blot method. The data set is classed as functional, cell-based.
In data set [14] the test system is Microglia. Kind of data set: Inhibition of lipopolysaccharide-induced iNOS protein expression in Sprague-Dawley rat primary microglia cells pre-incubated for 3 hrs before LPS stimulation by Western blot method. The data set is classed as functional, cell-based.
Data set [15] deals with BV-2. Kind of data set: Inhibition of lipopolysaccharide-induced IL6 production in mouse BV2 cells pre-incubated for 1 hr before LPS stimulation for 24 hrs by ELISA. The data set is classed as functional, cell-based.
Data set [16] concerns BV-2. Put plainly: Inhibition of lipopolysaccharide-induced TNFalpha production in mouse BV2 cells pre-incubated for 1 hr before LPS stimulation for 24 hrs by ELISA. The data set is classed as functional, cell-based.

Consider `CC(C)(O)C[C@@H]1CC[C@]2(C)[C@@H](O)CC[C@@](C)(O)[C@@H]12`, for which, in the data set with BV-2 [1], the inhibition result was “Dose-dependent effect”. The Activity entry in the data set on BV-2 [2] is on record as “Non-Toxic”. The inhibition at 60 µM in the data set on BV-2 [3] came to 39%.
On to `C[C@@H]1CCC=C2C(=O)C=C[C@@H](O)[C@]21C`, for which the IC50 in the data set with Microglia [4] worked out at 5.33 µM; with BV-2 [5], 2.05 µM; with Microglia [6], 5.84 µM; in the data set on BV-2 [7], 2.04 µM; with BV-2 [1], 3.48 µM; in the data set with Microglia [8], 3.18 µM. The half-maximal inhibitory concentration (IC50) worked out at 4.96 µM in the data set on Microglia [9], 3.62 µM with Microglia [12], 3.57 µM in the data set on BV-2 [15] and 2.11 µM in the data set on BV-2 [16]. Moreover, the inhibition result in the data set with BV-2 [1], with BV-2 [10], with BV-2 [11], in the data set with Microglia [13] and in the data set with Microglia [14] was “Dose-dependent effect” each time. Moreover, the Activity entry in the data set on BV-2 [2] was “Non-Toxic”.
`CC(C)C1CC[C@@](C)(O)[C@@H]2CC[C@](C)(O)[C@H]2[C@@H]1O` (stereo partly drawn): in the data set with BV-2 [1], the IC50 was more than 60 µM. In addition, in the data set with BV-2 [2], the Activity entry is listed as “Non-Toxic”. In addition, in the data set with BV-2 [3], the inhibition at 60 µM was determined as 34%.
`C=C1COC(=O)[C@H]2[C@@H]1C[C@H](O)[C@@]2(C)O` [JATAMANIN A]: in the data set with BV-2 [1], the IC50 is 27.8 µM and the inhibition entry was “Dose-dependent effect”. Also, in the data set with BV-2 [2], the Activity result is recorded as “Non-Toxic”.
Turning to `C=C1[C@@H]2O[C@@H](OC)[C@H]3[C@@H]1C[C@H](O)[C@]3(C)O2`, in the data set with BV-2 [1], the IC50 was more than 60 µM. Also, the Activity result in the data set on BV-2 [2] is “Non-Toxic”. For the same molecule, in the data set on BV-2 [3], the inhibition at 60 µM was 39.7%.
Consider `C[C@@H]1C[C@H](O)C=C2C(=O)C=C[C@@H](C(C)(C)O)[C@]21C`, for which, in the data set on BV-2 [1], the IC50 is 30.5 µM and the inhibition entry was “Dose-dependent effect”. In addition, the Activity result in the data set with BV-2 [2] is given as “Non-Toxic”.
For the molecule `CC(C)[C@]1(O)CC[C@@]2(C)[C@H](O)CC[C@](C)(O)[C@@H]2C1`, in the data set on BV-2 [1], the IC50 was more than 60 µM. Besides, the Activity result in the data set with BV-2 [2] is given as “Non-Toxic”. The inhibition at 60 µM with BV-2 [3] worked out at 28.4%.
With `C[C@@H]1C[C@H](O)C=C2C(=O)C=C[C@@H](O)[C@]21C` [NARCHINOL B], the IC50 was 3.1 µM in the data set with Microglia [4]; 2.38 µM with BV-2 [5]; 3.11 µM with Microglia [6]; 1.73 µM in the data set on BV-2 [7]; 2.43 µM in the data set with BV-2 [1]; 9.83 µM with Microglia [8]. For the same molecule, the IC50 with Microglia [9] came out at 4.17 µM; in the data set on Microglia [12], 4 µM; in the data set on BV-2 [15] it was 2.9 µM; in the data set with BV-2 [16], 1.7 µM. The inhibition result in the data set with BV-2 [1], with BV-2 [10], in the data set with BV-2 [11], in the data set on Microglia [13] and in the data set on Microglia [14] was “Dose-dependent effect” throughout. Also, in the data set on BV-2 [2], the Activity entry was “Non-Toxic”.
Regarding `C[C@@H]1C[C@@H](O)C=C2C(=O)C=C[C@@H](C(C)(C)O)[C@]21C`, in the data set on BV-2 [1], the IC50 worked out at 46.5 µM and the inhibition result is “Dose-dependent effect”. Moreover, the Activity entry in the data set on BV-2 [2] was “Non-Toxic”.

Values taken from ChEMBL document CHEMBL4177732, “Anti-neuroinflammatory effects of sesquiterpenoids isolated from Nardostachys jatamansi” (Bioorg Med Chem Lett, 2018).
